These are literature values, as cited in patent US9040535B2, “Crystalline molecular comlpexes of tadalafil” (THAR PHARMACEUTICALS, INC., priority 2009, dated 2015).

For data set [1] the following is noted: n-octanol/buffer pH 7.4.

In the case of `CN1CC(=O)N2[C@H](c3ccc4c(c3)OCO4)c3[nH]c4ccccc4c3C[C@@H]2C1=O` [Tadalafil, (6R-trans)-6-(1,3-benzodioxol-5-yl)-2,3,6,7,12,12a-hexahydro-2methyl-pyrazino[1′,2′:1,6]pyrido[3,4-b]indole-1,4-dione], the “apparent partition coefficient (log P)app” value in data set [1] is listed as 1.7. Besides, the solubility in chloroform result (chloroform) is recorded as “sparingly soluble”. For the same compound, the solubility in dioxane entry (dioxane) was “soluble”. Under “tetrahydrofuran”, the solubility in tetrahydrofuran result was “sparingly soluble”. The solubility in water result (water) was “practically insoluble”.
